Laboratory results from patent US9181181B2, “2-substituted-3-phenylpropionic acid derivatives and their use in the treatment of inflammatory bowel disease” (Albireo AB, priority 2007, dated 2015).

How the values were obtained:
human PPARalpha = human PPARalpha (Homo sapiens (Human), UniProt Q07869); assay: Transactivation (reporter gene) assay, GAL4-PPARalpha LBD in U-2 OS cells; assay type: cell-based; details: 40 h incubation, 16 μM ETYA as 100% control, read-out: EC50 PPARα
Description: (§1) Transactivation Assay Expression vectors were prepared by inserting the ligand binding domain cDNA (complementary DNA) of human PPARalpha (amino acid 168-468) and human PPARgamma (amino acid 205-505), 3′ to and in frame with, the yeast GAL4 transcription factor DNA binding domain and the nuclear localization signal from the T-antigen of Polyoma Virus into the mammalian expression vector pSGS (Stratagene). The resulting expression vectors pSGGAL-PPARalpha and pSGGAL-PPARgamma were used in co-transfection experiments together with a modified pGL3 promoter plasmid (Promega) containing five copies of the UAS GAL4 recognition site. 2.5 μg pSGGAL-PPARalpha or pSGGAL-PPARgamma were mixed with 25 μg pGL3p […] and 22.5 μg pBluescript (Stratagene) in 0.95 mL ice cold PBS containing between 9-12 million U-2 OS (human osteosarcoma) cells. The cell/DNA mixture was incubated on ice for 5 minutes and then divided between two 0.4 cm cuvettes and electroporated at 960 μF, 230 V using a BioRad electroporator. The two electroporation mixes were combined in assay medium [Dulbecco's Modified Eagle Medium w/o phenol red, (Gibco 11880-028) including 10% FBS (Foetal Bovine Serum), 1% PEST (Penicillin & Streptomycin), 20 mM Hepes, 2 mM L-Glutamine and 0.36% Glucose (Gibco 31966-021)] at 0.32 million cells/ml. 25 μl diluted, electroporated cells, were seeded into 384-well plates and allowed to adhere for 3-4 h at 37° C., 5% CO2 in a cell culture incubator. Test compounds in DMSO were diluted 40 fold in assay medium. 7 μl of diluted compound was added to the adhered electroporated cells and incubation was continued for 40 h in a cell culture incubator. Cells were lysed by adding 32 μl/well LucLite (Packard) and incubated at room temperature for 15 minutes. Luciferase activity was measured using a luminometry protocol on a Wallac Victor2 plate reader. 16 μM ETYA was used as the 100% control for humanPPARalpha activity and 16 μM Pioglitazone was used as the 100% control for humanPPARgamma activity. In Vivo Assay Determination of Plasma Clearance and Oral Bioavailability in Hamster or Mouse

human PPARgamma = human PPARgamma (Homo sapiens (Human), UniProt P37231); assay: Transactivation (reporter gene) assay, GAL4-PPARgamma LBD in U-2 OS cells; assay type: cell-based; details: 40 h incubation, 16 μM Pioglitazone as 100% control, read-out: EC50 PPARγ
human PPARgamma, sequence (P37231 205-505): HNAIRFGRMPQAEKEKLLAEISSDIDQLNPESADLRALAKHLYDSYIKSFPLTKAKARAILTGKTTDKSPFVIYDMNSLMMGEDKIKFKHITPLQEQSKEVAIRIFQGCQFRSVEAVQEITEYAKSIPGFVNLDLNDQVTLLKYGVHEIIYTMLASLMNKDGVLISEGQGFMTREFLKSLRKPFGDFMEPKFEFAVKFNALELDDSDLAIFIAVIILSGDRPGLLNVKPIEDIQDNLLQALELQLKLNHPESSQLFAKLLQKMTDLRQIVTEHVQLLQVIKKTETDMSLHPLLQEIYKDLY
Description: as §1

human PPARalpha, sequence (Q07869 168-468): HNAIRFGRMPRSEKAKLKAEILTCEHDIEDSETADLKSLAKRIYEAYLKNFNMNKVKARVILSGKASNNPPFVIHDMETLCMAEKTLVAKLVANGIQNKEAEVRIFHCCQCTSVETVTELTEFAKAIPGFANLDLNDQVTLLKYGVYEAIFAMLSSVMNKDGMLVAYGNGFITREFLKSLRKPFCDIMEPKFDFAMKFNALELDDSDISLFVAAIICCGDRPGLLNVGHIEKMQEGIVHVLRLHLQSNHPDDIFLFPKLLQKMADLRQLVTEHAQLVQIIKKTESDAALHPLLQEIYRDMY

O=C(Cc1ccc(C(F)(F)F)cc1)OCc1ccc(SCc2ccccc2C(=O)O)cc1 [Example 29, 2-{4-[2-(4-Trifluoromethyl-phenyl)-acetoxymethyl]-phenylsulfanylmethyl}-benzoic acid]
EC50 (human PPARalpha): 0.029 µM | EC50 (human PPARgamma): 0.76 µM

O=C(Cc1ccc(SCc2ccccc2C(=O)O)cc1)OCc1ccc(C(F)(F)F)cc1 [Example 30, 2-[4-(4-Trifluoromethyl-benzyloxycarbonylmethyl)-phenylsulfanylmethyl]-benzoic acid]
EC50 (human PPARalpha): 0.16 µM | EC50 (human PPARgamma): 1.7 µM

CC(OC(=O)Cc1cccc(SCc2ccccc2C(=O)O)c1)c1ccc(C(F)(F)F)cc1 (stereo not drawn) [Example 31, 2-{3-[1-(4-Trifluoromethyl-phenyl)-ethoxycarbonylmethyl]phenylsulfanylmethyl}-benzoic acid]
EC50 (human PPARalpha): 18 µM | EC50 (human PPARgamma): 3.5 µM

O=C(Cc1cccc(SCc2ccccc2C(=O)O)c1)OCCc1ccc(C(F)(F)F)cc1 [Example 32, 2-{3-[2-(4-Trifluoromethyl-phenyl)-ethoxycarbonylmethyl]-phenylsulfanylmethyl}-benzoic acid]
EC50 (human PPARalpha): 5.5 µM | EC50 (human PPARgamma): 3 µM

Cc1cccc(C)c1COC(=O)Cc1ccc(SCc2ccccc2C(=O)O)cc1 [Example 33, 2-[4-(2,6-Dimethyl-benzyloxycarbonylmethyl)-phenylsulfanylmethyl]-benzoic acid]
EC50 (human PPARalpha): 0.62 µM | EC50 (human PPARgamma): 18 µM

C=CCC(OC(=O)Cc1ccc(SCc2ccccc2C(=O)O)cc1)c1ccccc1 (stereo not drawn) [Example 34, 2-[4-(1-Phenyl-but-3-enyloxycarbonylmethyl)-phenylsulfanylmethyl]-benzoic acid]
EC50 (human PPARalpha): 18 µM | EC50 (human PPARgamma): 15 µM

COC(=O)C(Cc1ccccc1)OC(=O)Cc1cccc(SCc2ccccc2C(=O)O)c1 (stereo not drawn) [Example 35, 2-[3-(1-Methoxycarbonyl-2-phenyl-ethoxycarbonylmethyl)-phenylsulfanylmethyl]-benzoic acid]
EC50 (human PPARalpha): 22 µM | EC50 (human PPARgamma): 6 µM

COc1ccc(CCOC(=O)Cc2ccc(SCc3ccccc3C(=O)O)cc2)cc1OC [Example 36, 2-{4-[2-(3,4-Dimethoxy-phenyl)-ethoxycarbonylmethyl]-phenylsulfanylmethyl}-benzoic acid]
EC50 (human PPARalpha): 21 µM | EC50 (human PPARgamma): 7 µM

COC(=O)C(Cc1ccccc1)OC(=O)Cc1ccc(SCc2ccccc2C(=O)O)cc1 (stereo not drawn) [Example 37, 2-[4-(1-Methoxycarbonyl-2-phenylethoxycarbonylmethyl)phenylsulfanylmethyl]-benzoic acid]
EC50 (human PPARalpha): 2.2 µM | EC50 (human PPARgamma): 3.9 µM

O=C(Cc1cccc(SCc2ccccc2C(=O)O)c1)OCCc1ccccc1C(F)(F)F [Example 38, 2-{3-[2-(2-Trifluoromethylphenyl)ethoxycarbonylmethyl]phenylsulfanylmethyl}-benzoic acid]
EC50 (human PPARalpha): 3.8 µM | EC50 (human PPARgamma): 9 µM

O=C(Cc1ccc(SCc2ccccc2C(=O)O)cc1)OCCc1ccccc1C(F)(F)F [Example 40, 2-{4-[2-(2-Trifluoromethylphenyl)ethoxycarbonylmethyl]phenylsulfanylmethyl}-benzoic acid]
EC50 (human PPARalpha): 0.76 µM | EC50 (human PPARgamma): 8.2 µM

Cc1cccc(C)c1COC(=O)Cc1cccc(SCc2ccccc2C(=O)O)c1 [Example 41, 2-[3-(2,6-Dimethyl-benzyloxycarbonylmethyl)-phenylsulfanylmethyl]-benzoic acid]
EC50 (human PPARalpha): 15 µM | EC50 (human PPARgamma): 3.8 µM

O=C(Cc1cccc(SCc2ccccc2C(=O)O)c1)OCc1ccc(-n2cccn2)cc1 [Example 42, 2-[3-(4-Pyrazol-1-yl-benzyloxycarbonylmethyl)-phenylsulfanylmethyl]-benzoic acid]
EC50 (human PPARalpha): 18 µM | EC50 (human PPARgamma): 4.2 µM

O=C(Cc1ccc(SCc2ccccc2C(=O)O)cc1)OCc1ccc(-n2cccn2)cc1 [Example 43, 2-[4-(4-Pyrazol-1-yl-benzyloxycarbonylmethyl)-phenylsulfanylmethyl]-benzoic acid]
EC50 (human PPARalpha): 16 µM | EC50 (human PPARgamma): 4.2 µM

COc1ccc(CCOC(=O)Cc2cccc(SCc3ccccc3C(=O)O)c2)cc1OC [Example 44, 2-{3-[2-(3,4-Dimethoxy-phenyl)-ethoxycarbonylmethyl]-phenylsulfanylmethyl}-benzoic acid]
EC50 (human PPARalpha): 18 µM | EC50 (human PPARgamma): 11 µM
